# Earlier results as cited in patent US20230112418A1, “COMPOUND AND RADIOACTIVE LABELING COMPOUND” (NIHON MEDI-PHYSICS CO., LTD., priority 2020, published 2023).
# Conditions: compared with kidney value one hour after the injection; EJNMMI Res 2012, J Nucl Med 2017; cited from earlier work
structure (smiles),measurement,value
O=C([O-])CN(CCN(CC(=O)[O-])Cc1cc(CCC(=O)NCCCCCC(=O)NCCCC[C@H](NC(=O)N[C@@H](CCC(=O)O)C(=O)O)C(=O)O)ccc1[O-])Cc1cc(CCC(=O)O)ccc1[O-].[68Ga+3].[OH3+] [[^68Ga]Ga-PSMA-11],Accumulation in the kidney (literature),139 % ID/g
